Measurements reported in patent US10745352B2, “Dual function molecules for histone deacetylase inhibition and ataxia telangiectasia mutated activation and methods of use thereof” (Shuttle Pharmaceuticals, Inc., priority 2015, dated 2020).

System: pan-HDACs
Test: Pan-HDAC assay (Fluor-de-Lys fluorometric kit, HeLa Nuclear Extract)
Assay type: biochemical
Conditions: values are average EC50, read-out: EC50 against pan-HDACs
Protocol: Certain compounds of the invention were tested in a pan-HDAC assay to determine the ability of such compounds to inhibit HDAC protein. Specifically, the compounds tested included: N-(6-(hydroxyamino)-6-oxohexyl)-3-methyl-1H-indole-2-carboxamide (SP-1-161) (FIG. 8A); N^1-hydroxy-N^6-(2-(2-methyl-1H-indol-3-yl)ethyl)octanediamide (SP-1-163) (FIG. 8A); (S)—N-(6-(hydroxyamino)-6-oxohexyl)-1-tosylindoline-2-carboxamide (SP-1-169) (FIG. 8B); and (S)-1-((5-(dimethylamino)naphthalene-1-yl)sulfonyl)-N-(6-(hydroxyamino)-6-oxoheyl)indoline-carboxamide (SP-1-171) (FIG. 8B).
The Pan HDAC assay was performed as follows:
Materials: Enzo Fluor-de-Lys HDAC fluorometric activity assay kit; 360 nm excitation 460 nm emission Plate Reader; Disposable pipettes; Pipet-aid; Pipette tips; Micro-pipetter; DMSO; Sterile micro-tubes and conical tubes; and Micro-centrifuge.
Test compounds and control preparation: All test compounds' stock solutions were made in 100% DMSO. Test compound dilutions were made in HDAC Assay buffer with a final concentration of DMSO less than or equal to 1%. Vehicle control was HDAC Assay buffer with 1% DMSO.
The reagents for the assay were prepared as follows:
1. All kit components were defrosted and these, and all dilutions described below, were kept on ice until use. All undiluted kit components are stable for several hours on ice.
2. A sufficient amount of HeLa Nuclear Extract (BML-KI140) or other HDAC source diluted in Assay Buffer (BML-KI143) was prepared to provide for the assays that were performed (# of wells×15 μl). A 30-fold dilution of the HeLa Extract means that 15 μl contains 0.5 μl of the undiluted Extract, an appropriate amount to use per well.
3. Dilution(s) of Trichostatin A and/or Test Inhibitors were prepared in Assay Buffer (BML-KI143). Since 10 μl were used per well, and since the final volume of the HDAC reaction was 50 μl, these inhibitor dilutions were 5× their final concentration.
4. Dilution(s) of the Fluor de Lys® Substrate (BML-KI104; 50 mM) were prepared in Assay Buffer (BML-KI143) that were 2× the desired final concentration(s). For inhibitor screening, substrate concentrations at or below the Km are recommended. Twenty-five μL were used per well. Initial dilutions of 25-fold or greater in Assay Buffer (2.0 mM or less) yielded stable solutions (see NOTE on freezing and thawing below). Rapid mixing and dilution into room temperature buffer helped to prevent precipitation at high substrate concentration. NOTE: Freezing/thawing of Fluor de Lys® Substrate solutions in Assay Buffer may cause precipitation of the Substrate. Dilute only amount necessary for one day's experiment.
5. Shortly before use (<30 min.), sufficient Fluor de Lys® Developer was prepared for the assays to be performed (50 μl per well). […]

`Cc1c(C(=O)NCCCCCC(=O)NO)[nH]c2ccccc12` [SP-1-161, N-(6-(hydroxyamino)-6-oxohexyl)-3-methyl-1H-indole-2-carboxamide] gave an EC50 of 29.7 nM.
